For 3 compounds, IC50 and EC50 results are on record in ChEMBL document CHEMBL1201862, “PubChem BioAssay data set” (2004).

For one experiment, the target named is Hexokinase (Trypanosoma brucei, UniProt Q38C41). The experiment in a line: Confirmation assay for inhibitors of Trypanosoma brucei hexokinase 1-Analogue-first series. [Related pubchem assays (depositor defined):AID1430, AID1632, AID2516, AID2560, AID2579, AID2600, AID449725, AID492951]. The experiment is classed as functional.
Experiment [1] concerns the target Glucose-6-phosphate 1-dehydrogenase (Homo sapiens, UniProt P11413). The experiment in a line: human G6PD enzyme inhibitors, dose response, selectivity assay for P. falciparum G6PD inhibitor project, biochemical, fluorescence (AID 504792). It is filed as functional.
The target in experiment [2] is T1, Polyadenylate-binding protein 1 (Homo sapiens, UniProt P11940). The experiment in a line: PABP1 MLLE–PAM2 interaction inhibitors, dose response, miRNA deadenylation inhibitor project, biochemical, fluorescence polarization, Cy5-PAM2 peptide, secondary (AID 602260). The experiment is classed as functional. Particulars: read-out: IC50_Mean. For orientation: Polarisation of emitted light reports the rotation of a fluorescent probe.
T1 sequence (P11940 whole entry): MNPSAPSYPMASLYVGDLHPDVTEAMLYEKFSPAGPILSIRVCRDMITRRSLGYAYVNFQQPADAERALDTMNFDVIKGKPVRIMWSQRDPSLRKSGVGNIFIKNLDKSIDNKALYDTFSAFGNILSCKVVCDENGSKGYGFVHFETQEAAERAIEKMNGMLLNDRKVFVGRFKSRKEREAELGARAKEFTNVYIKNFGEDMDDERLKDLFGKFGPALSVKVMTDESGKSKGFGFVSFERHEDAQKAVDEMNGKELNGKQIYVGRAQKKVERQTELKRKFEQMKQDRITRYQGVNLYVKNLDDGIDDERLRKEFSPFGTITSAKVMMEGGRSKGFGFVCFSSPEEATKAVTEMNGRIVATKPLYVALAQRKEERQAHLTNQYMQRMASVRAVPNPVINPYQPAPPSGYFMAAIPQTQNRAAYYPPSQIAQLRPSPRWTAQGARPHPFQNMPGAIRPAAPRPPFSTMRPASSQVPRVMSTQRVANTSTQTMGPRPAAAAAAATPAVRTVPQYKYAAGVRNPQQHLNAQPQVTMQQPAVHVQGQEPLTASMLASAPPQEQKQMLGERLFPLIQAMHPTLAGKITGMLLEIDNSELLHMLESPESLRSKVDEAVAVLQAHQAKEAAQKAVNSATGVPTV

Experiment [3] addresses T1, Polyadenylate-binding protein 1. The experiment in a line: PABP1 MLLE–PAM2 binding inhibitor potency, dose response, biochemical, fluorescence polarization, FITC-PAM2 peptide (AID 602259). The experiment is classed as functional. The settings on record: read-out: IC50_Mean.
A further experiment has as its target T2, Coagulation factor XII (Homo sapiens, UniProt P00748).
T2 sequence (P00748 whole entry): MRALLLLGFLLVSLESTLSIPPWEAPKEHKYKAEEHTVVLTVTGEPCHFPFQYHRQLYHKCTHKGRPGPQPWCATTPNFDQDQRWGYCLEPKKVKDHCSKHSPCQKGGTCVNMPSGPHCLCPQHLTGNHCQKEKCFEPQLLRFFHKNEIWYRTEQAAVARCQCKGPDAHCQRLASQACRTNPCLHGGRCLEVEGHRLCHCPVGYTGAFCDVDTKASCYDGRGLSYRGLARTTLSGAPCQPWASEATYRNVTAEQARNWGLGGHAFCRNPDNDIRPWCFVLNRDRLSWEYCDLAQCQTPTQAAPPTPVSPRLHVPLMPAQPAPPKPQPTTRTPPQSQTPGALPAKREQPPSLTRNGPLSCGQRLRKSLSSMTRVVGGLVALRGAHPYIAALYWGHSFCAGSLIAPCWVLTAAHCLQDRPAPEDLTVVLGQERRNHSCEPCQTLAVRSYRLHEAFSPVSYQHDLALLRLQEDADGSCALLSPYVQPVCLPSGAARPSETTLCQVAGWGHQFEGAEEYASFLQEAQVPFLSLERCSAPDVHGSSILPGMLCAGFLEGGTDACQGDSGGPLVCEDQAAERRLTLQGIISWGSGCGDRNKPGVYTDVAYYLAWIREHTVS
The experiment in a line: FXIIa inhibitor potency, concentration-response, biochemical (AID 716). It is filed as functional.

Another experiment has as its target T3, Leucine aminopeptidase (Plasmodium falciparum 3D7, UniProt Q8IL11).
T3 sequence (Q8IL11 whole entry): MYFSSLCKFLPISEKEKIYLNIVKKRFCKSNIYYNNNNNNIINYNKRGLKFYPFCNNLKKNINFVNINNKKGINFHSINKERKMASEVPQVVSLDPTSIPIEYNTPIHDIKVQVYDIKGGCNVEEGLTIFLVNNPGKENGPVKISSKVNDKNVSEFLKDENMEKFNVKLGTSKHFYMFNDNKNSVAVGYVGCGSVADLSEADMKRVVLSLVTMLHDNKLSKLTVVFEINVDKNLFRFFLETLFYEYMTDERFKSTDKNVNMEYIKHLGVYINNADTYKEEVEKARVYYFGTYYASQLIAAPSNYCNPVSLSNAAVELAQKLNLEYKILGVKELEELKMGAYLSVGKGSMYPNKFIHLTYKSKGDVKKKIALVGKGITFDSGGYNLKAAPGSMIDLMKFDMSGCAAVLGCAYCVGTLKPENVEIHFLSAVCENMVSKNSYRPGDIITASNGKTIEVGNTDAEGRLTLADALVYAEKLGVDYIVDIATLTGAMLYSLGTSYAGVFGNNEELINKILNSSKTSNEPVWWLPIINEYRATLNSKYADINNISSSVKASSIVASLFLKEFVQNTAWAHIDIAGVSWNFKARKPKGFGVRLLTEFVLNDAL
The experiment in a line: P. falciparum M17LAP inhibitors, primary screen, biochemical, fluorogenic H-Leu-NHMec substrate, 1536-well (AID 1619). It is filed as functional.

Another experiment deals with T4, Aspartyl aminopeptidase (Plasmodium falciparum 3D7, UniProt Q8I2J3).
T4 sequence (Q8I2J3 whole entry): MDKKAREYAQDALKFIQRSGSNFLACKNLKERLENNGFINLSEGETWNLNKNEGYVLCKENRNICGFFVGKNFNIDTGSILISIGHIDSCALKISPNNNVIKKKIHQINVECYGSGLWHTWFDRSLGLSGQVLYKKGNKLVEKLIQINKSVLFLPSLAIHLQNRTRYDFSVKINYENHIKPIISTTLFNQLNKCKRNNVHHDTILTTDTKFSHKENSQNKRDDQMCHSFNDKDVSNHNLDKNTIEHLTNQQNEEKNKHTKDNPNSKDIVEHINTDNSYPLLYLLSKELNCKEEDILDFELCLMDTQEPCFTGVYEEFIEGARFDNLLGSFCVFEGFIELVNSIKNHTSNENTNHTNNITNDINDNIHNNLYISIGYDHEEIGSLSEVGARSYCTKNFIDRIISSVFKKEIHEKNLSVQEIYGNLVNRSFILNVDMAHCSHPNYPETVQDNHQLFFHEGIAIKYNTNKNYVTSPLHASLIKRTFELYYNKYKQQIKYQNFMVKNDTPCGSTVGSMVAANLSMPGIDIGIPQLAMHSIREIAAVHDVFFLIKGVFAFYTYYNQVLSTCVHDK
The experiment in a line: Counterscreen for inhibitors of M1 and M17 aminopeptidases: QFRET-based biochemical high throughput dose response assay for inhibitors of the Plasmodium falciparum M18 Aspartyl Aminopeptidase (PFM18AAP). [Related PubChem assays: 1619 (Screening assay (M17LAP inhibitors).), 1445 (Screening assay (M1AAP inhibitors).)]. On the technique in general: A counterscreen serves to expose hits that act by an unwanted route or on another target.

The target in the next experiment is Procathepsin L (Homo sapiens, UniProt P07711). The experiment in a line: cathepsin L inhibitors, dose response, counter-screen for M1/M17 aminopeptidase inhibitor project, biochemical, QFRET, 1536-well (AID 2214).
Procathepsin L, sequence (P07711 whole entry): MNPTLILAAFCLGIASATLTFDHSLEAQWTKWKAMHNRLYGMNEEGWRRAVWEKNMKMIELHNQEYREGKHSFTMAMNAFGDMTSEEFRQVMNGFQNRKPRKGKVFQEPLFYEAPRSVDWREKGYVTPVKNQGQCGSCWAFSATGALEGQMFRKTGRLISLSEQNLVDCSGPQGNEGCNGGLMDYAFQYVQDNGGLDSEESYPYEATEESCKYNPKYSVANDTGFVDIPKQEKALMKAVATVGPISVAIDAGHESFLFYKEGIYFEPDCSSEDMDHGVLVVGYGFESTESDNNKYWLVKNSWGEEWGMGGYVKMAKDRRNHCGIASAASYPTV
In experiment [4] the target is G-protein coupled receptor 55 (Homo sapiens, UniProt Q9Y2T6). The experiment in a line: GPR55 agonists via beta-arrestin recruitment, primary screen, imaging, U2OS cells, beta-arrestin-GFP redistribution (AID 1961). It is filed as functional. Background: Arrestin recruitment assays detect the binding of arrestin to an activated receptor.
G-protein coupled receptor 55, sequence (Q9Y2T6 whole entry): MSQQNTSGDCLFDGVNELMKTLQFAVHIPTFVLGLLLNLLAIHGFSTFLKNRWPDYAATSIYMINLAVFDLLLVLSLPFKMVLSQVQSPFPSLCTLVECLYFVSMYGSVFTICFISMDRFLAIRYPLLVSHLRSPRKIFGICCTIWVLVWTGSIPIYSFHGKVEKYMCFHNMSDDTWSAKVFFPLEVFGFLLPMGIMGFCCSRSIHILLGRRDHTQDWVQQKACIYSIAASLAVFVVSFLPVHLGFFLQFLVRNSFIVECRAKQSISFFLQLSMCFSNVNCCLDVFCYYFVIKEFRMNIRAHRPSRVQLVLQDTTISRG

Active and inactive are the calls of the source.

Hexokinase, sequence (Q38C41 whole entry): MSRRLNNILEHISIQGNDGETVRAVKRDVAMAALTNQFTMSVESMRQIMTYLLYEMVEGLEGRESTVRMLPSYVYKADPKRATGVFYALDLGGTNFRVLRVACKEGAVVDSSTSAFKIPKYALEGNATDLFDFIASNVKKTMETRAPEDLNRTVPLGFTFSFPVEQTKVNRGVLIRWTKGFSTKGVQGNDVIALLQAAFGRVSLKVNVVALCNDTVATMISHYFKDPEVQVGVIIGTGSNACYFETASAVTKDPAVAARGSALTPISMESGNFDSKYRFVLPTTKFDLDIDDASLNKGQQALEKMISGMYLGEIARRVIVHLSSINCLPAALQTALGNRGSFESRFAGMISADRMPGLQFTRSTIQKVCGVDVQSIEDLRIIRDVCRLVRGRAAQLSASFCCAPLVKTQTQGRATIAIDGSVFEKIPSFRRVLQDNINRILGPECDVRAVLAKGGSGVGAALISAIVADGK
Glucose-6-phosphate 1-dehydrogenase, sequence (P11413 whole entry): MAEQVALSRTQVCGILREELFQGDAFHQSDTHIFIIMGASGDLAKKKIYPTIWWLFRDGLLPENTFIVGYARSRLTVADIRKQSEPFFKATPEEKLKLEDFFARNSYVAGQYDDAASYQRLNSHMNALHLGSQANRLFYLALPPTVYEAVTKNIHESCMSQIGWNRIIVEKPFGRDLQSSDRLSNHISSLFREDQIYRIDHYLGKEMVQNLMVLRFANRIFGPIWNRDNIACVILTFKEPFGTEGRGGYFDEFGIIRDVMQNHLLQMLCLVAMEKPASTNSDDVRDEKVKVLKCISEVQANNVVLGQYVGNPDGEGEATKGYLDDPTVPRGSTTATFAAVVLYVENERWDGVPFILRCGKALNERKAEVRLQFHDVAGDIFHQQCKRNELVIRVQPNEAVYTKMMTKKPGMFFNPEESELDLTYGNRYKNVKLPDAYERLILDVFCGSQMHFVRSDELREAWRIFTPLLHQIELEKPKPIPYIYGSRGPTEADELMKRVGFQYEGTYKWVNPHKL

As to `N#Cc1ccc2c(=O)n(-c3ccccc3)sc2c1`, the IC50 was 6.66 µM (active) on Hexokinase, 7.11 µM (active) in experiment [1], > 66 µM (inactive) in experiment [2] and > 66 µM (inactive) in experiment [3].

Regarding `COc1ccc2c(c1)CCc1c(C(=O)NCc3cccnc3)noc1-2`, at Coagulation factor XII, the IC50 was 3.76 µM (active).

As a reminder, the EC50 is the concentration needed to bring the measured effect to its halfway point. Turning to `O=C(CSc1nnc(Nc2ccccc2)s1)NN1C(=O)NC2(CCCCC2)C1=O`, the IC50 on Leucine aminopeptidase is < 1 µM (active); at Aspartyl aminopeptidase, > 73.5 µM (not active); against Procathepsin L, > 59.6 µM (not active). Moreover, the EC50 in experiment [4] was 30.3 µM (inactive).
